Source: patent publication US10967078B2, “Radiolabelled mGluR2 PET ligands” (Janssen Pharmaceutica NV, priority 2014, dated 2021)

Legend:
mGlu3 = mGlu3 (Homo sapiens, UniProt Q14832); assay: Selectivity for mGluR2 versus mGluR3; type: biochemical
mGlu5 = mGlu5 (Homo sapiens, UniProt P41594); assay: Selectivity for mGluR2 versus mGluR5; type: biochemical
mGlu8 = mGlu8 (Homo sapiens, UniProt O00222); assay: Selectivity for mGluR2 versus mGluR8; type: biochemical
mGlu1 = mGlu1 (Homo sapiens, UniProt Q13255); assay: Selectivity for mGluR2 versus mGluR1; type: biochemical
mGlu7 = mGlu7 (Homo sapiens, UniProt Q14831); assay: Selectivity for mGluR2 versus mGluR7; type: biochemical
mGlu4 = mGlu4 (Homo sapiens, UniProt Q14833); assay: Selectivity for mGluR2 versus mGluR4; type: biochemical
Sequence of mGlu4 (Q14833 33-912): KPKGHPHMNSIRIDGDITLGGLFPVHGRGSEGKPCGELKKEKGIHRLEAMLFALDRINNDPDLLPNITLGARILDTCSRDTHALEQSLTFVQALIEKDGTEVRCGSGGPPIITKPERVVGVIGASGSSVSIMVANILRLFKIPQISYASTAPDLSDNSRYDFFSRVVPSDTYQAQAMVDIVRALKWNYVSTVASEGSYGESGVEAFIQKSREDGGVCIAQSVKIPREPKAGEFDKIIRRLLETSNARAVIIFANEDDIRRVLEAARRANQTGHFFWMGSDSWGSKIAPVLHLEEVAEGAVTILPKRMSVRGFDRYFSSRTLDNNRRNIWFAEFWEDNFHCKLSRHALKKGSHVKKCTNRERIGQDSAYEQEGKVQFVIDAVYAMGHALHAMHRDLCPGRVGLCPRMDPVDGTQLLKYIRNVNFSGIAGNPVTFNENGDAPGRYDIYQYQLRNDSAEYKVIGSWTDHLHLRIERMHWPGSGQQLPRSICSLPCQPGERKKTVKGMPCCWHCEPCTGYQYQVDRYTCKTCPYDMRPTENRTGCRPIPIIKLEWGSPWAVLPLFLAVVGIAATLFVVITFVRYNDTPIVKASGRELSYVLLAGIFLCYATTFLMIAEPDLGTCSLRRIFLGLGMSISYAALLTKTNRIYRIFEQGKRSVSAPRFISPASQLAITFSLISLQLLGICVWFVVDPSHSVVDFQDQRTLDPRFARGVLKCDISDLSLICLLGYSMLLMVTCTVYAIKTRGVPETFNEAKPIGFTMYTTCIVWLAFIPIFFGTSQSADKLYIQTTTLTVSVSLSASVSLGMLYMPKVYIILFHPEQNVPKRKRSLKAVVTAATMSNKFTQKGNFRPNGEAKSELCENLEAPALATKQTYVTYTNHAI

human mGlu2 receptor = target: T1, human mGlu2 receptor (Homo sapiens, UniProt Q14416); assay: [35S]GTPγS binding assay, membranes from CHO cells transfected with the human mGlu2 receptor (NAM activity); type: biochemical
T1 construct: expressed in transfected cells; host or cells: CHO cells
T1 sequence (Q14416 19-872): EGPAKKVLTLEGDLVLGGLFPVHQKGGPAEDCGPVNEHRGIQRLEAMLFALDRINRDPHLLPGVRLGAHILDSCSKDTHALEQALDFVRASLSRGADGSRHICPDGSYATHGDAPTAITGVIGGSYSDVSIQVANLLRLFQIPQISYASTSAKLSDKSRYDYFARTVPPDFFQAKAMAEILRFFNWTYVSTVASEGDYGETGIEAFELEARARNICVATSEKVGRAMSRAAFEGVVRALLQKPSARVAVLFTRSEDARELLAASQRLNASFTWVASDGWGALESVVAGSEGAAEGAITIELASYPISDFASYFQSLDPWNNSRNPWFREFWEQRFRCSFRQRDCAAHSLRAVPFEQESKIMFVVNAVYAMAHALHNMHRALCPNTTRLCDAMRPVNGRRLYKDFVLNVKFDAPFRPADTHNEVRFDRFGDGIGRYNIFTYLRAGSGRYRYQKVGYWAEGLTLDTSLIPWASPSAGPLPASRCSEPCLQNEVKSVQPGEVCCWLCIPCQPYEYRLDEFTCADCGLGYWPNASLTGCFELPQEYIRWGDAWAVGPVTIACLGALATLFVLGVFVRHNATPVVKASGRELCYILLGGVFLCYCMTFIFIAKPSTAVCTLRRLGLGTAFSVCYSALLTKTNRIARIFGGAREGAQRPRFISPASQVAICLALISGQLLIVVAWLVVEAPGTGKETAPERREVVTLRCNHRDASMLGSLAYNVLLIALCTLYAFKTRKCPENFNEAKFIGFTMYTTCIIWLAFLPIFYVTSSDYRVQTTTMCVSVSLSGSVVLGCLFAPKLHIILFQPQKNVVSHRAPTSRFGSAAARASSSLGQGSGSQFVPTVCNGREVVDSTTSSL
Experimental: The [^35S]GTPγS binding assay is a functional membrane-based assay used to study G-protein coupled receptor (GPCR) function whereby incorporation of a non-hydrolysable form of GTP, [^35S]GTPγS (guanosine 5′-triphosphate, labelled with […] ^35S), is measured. The G-protein a subunit catalyzes the exchange of guanosine 5′-diphosphate (GDP) by guanosine triphosphate (GTP) and on activation of the GPCR by an agonist, [^35S]GTPγS, becomes incorporated and cannot be cleaved to continue the exchange cycle (Harper (1998) Current Protocols in Pharmacology 2.6.1-10, John Wiley & Sons, Inc.). […]
CHO-cells were cultured to pre-confluence and stimulated with 5 mM butyrate for 24 h. […] Protein concentration was determined by the Bradford method (Bio-Rad, USA) with bovine serum albumin as standard.
Measurement of mGluR2 negative allosteric modulatory activity of test compounds was performed as follows. […] Membrane-bound radioactivity was counted in a Topcount.
The concentration-response curves of representative compounds of the present invention were generated using the Lexis software interface (developed at J&J). Data were calculated as % of the control glutamate response, defined as the response that is generated upon addition of an EC80-equivalent concentration of glutamate. […] The concentration producing half-maximal inhibition was calculated as the IC50. […]

Sequence of mGlu3 (Q14832 23-879): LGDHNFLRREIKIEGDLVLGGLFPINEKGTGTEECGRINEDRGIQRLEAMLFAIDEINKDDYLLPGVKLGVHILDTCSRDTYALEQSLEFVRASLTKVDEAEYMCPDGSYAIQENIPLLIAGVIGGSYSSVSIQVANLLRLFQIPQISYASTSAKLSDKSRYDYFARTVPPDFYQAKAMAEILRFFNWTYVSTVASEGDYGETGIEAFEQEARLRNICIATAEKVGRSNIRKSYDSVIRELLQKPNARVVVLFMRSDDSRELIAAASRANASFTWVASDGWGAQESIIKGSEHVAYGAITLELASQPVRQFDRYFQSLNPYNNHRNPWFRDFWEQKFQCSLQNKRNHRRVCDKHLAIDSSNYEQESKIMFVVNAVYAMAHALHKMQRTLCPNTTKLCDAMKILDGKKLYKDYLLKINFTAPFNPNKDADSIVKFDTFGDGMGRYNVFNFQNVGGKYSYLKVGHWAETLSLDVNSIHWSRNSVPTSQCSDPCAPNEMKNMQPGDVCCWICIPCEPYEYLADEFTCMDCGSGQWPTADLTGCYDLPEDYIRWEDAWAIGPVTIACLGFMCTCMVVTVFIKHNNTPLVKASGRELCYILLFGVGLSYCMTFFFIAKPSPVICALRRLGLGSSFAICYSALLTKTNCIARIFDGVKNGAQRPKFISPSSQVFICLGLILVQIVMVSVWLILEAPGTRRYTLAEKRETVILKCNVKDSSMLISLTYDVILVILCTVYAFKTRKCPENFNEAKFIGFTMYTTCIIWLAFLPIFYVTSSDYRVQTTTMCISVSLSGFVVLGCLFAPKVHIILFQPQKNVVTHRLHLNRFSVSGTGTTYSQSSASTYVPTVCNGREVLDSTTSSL
Sequence of mGlu8 (O00222 34-908): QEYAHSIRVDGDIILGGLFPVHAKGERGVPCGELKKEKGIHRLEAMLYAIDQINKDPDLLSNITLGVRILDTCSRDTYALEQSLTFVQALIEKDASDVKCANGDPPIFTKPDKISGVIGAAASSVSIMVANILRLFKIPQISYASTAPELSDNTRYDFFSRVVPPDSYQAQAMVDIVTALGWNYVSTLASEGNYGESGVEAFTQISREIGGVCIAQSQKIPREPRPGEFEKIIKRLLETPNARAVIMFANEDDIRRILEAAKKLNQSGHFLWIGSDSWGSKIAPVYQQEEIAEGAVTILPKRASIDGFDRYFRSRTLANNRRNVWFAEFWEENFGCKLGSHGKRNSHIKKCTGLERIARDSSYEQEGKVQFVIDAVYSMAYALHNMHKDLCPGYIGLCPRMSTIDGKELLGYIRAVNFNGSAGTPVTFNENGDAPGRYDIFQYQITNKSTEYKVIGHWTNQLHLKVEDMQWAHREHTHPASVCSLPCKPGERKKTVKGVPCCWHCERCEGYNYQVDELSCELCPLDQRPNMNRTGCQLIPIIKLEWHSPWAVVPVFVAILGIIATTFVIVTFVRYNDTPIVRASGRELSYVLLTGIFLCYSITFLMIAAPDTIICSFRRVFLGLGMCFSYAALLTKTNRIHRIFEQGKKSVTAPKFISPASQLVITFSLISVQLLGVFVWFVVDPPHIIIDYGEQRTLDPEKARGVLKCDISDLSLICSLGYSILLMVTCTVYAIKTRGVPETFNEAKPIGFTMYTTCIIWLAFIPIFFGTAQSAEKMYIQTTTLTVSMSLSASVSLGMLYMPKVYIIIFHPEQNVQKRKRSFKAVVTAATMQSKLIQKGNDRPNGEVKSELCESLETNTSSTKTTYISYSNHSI
Sequence of mGlu5 (P41594 21-1212): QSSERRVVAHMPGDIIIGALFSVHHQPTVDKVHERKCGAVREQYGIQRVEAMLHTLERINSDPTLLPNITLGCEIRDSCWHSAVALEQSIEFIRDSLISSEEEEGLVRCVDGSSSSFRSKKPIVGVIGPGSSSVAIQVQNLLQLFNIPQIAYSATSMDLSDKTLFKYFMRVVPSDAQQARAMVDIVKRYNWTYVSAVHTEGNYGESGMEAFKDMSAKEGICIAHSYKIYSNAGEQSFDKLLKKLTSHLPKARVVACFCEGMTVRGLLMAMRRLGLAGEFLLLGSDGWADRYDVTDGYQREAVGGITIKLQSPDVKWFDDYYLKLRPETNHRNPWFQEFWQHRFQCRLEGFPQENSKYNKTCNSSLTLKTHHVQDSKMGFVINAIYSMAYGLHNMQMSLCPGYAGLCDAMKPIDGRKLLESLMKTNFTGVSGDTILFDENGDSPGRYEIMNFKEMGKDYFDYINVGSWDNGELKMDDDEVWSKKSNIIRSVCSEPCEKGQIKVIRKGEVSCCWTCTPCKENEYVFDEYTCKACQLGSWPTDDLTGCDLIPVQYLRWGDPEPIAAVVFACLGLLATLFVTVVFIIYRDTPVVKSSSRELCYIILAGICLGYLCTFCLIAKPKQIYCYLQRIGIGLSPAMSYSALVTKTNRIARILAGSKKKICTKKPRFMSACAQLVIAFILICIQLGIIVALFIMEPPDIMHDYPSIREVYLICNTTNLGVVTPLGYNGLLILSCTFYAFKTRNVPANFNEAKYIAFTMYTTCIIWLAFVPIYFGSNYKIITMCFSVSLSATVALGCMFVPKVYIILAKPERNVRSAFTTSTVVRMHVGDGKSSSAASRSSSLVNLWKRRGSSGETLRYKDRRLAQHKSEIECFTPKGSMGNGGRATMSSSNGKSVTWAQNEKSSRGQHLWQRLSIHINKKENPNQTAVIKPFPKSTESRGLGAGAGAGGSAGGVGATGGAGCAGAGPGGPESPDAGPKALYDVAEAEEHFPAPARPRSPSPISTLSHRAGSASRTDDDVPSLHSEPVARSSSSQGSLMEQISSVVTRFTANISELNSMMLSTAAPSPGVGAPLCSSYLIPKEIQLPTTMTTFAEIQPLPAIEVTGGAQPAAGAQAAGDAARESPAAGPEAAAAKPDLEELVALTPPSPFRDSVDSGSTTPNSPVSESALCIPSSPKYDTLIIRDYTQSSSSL

Row | Selectivity over mGlu3 (mGlu3) | Selectivity over mGlu5 (mGlu5) | Selectivity over mGlu8 (mGlu8) | Selectivity over mGlu1 (mGlu1) | Selectivity over mGlu7 (mGlu7) | Selectivity over mGlu4 (mGlu4) | melting point | IC50 (human mGlu2 receptor; glutamate 60 μM (~EC80), read-out: GTPγS - hmGluR2 anGT pIC50 (converted)) | Emax (human mGlu2 receptor; maximal % inhibition relative to the control glutamate response, read-out: GTPγS - hmGluR2 anGT Emax) | SMILES
1 | 25.7 | 1122.0 | 1122.0 | 1122.0 | 1122.0 | 5623.4 |  |  |  | Cc1cc(-c2cnn3c2C(=O)N(c2ccc(C(F)(F)F)cc2)C[C@@H]3C)ccn1 [Co. No. 1, (7S)-7-Methyl-3-(2-methylpyridin-4-yl)-5-[4-(trifluoromethyl)phenyl]-6,7-dihydropyrazolo[1,5-a]pyrazin-4(5H)-one]
2 | 16.2 | 1819.7 | 1819.7 | 1819.7 | 1819.7 | 9120.1 | 170.3 °C |  |  | C[C@H]1CN(c2ccc(Cl)c(Cl)c2)C(=O)c2c(-c3ccnc(F)c3)cnn21 [Co. No. 3, (7S)-5-(3,4-Dichlorophenyl)-3-(2-fluoro-4-pyridyl)-7-methyl-6,7-dihydropyrazolo[1,5-a]pyrazin-4-one]
3 | 77.6 |  |  |  |  |  |  | 3.02 nM | 106% | CNc1cc(-c2cnn3c2C(=O)N(c2ccc(S(F)(F)(F)(F)F)cc2)C[C@@H]3C)ccn1 [Co. No. 4, (7S)-7-Methyl-3-[2-(methylamino)-4-pyridyl]-5-[4-(pentafluoro-λ^6-sulfanyl)phenyl]-6,7-dihydropyrazolo[1,5-a]pyrazin-4-one]
